Values joined by “and” are separate entries in the source; they are usually repeats but may differ in a detail not shown here. Identical values can stand only once.
Columns and labels:
Assay type in all cases: physicochemical
[1] = % transmission spectrum of 0.1% solution (breakthrough, steepness); conditions: for Steepness: distance in nm over which transmittance increases from 1 to 80%; for Breakthrough (1% T at 0.1%): value in nm where transmittance increases beyond 1%, 0.1% solution
Description: FIG. 2 is a is a graphical representation of the % transmission of compounds 142 and 143 measured in a 2 mm cuvette as 0.1% solutions in methanol (142 is the left most trace);
(§1) The synthesised benzoyl functionalised compounds and their spectroscopic properties can be seen in table 2 wherein; breakthrough denotes the value in nm where transmittance increases beyond 1%; steepness refers to the distance in nm over which transmittance increases from 1 to 80% (a higher value indicates a less steep transition from absorbing to transmitting and is generally unfavourable); and ^a denotes an average of multiple measurements. As a general comment, it can be noted that the benzoyl substituted compounds gave similar absorbance maxima to the corresponding trifluoroacetyl derivative.

[2] = UV absorbance spectrum in solution (λmax, λcrit, extinction coefficients); conditions: for λcrit: critical wavelength; for E (1%, 1 cm): mass extinction coefficient; for ε: molar extinction coefficient, in M-1 cm-1 (unit assumed)
Description: as §1, with “FIG. 1 is a graphical representation of the absorbance of compounds 142 and 143 measured in a 10 mm cuvette as 0.001% solutions in methanol (142 is the uppermost trace at peak point of approximately 330 nm); The” for “The”

[3] = Photostability protocol: thin film irradiated with xenon arc lamp; conditions: 1 hour xenon arc lamp; for Photostability: ratio of absorbance at λmax irradiated vs unirradiated, ^a = average of multiple measurements
Method: 1 mL of a 3% solution of the test compound (30 mg of test compound in 1 mL solvent) was prepared in a solvent mix made up of 50% EtOH and 25% capric/caprylic triglyceride and 25% C12-C15 alkyl benzoate. 50 μL of this solution (containing 1.5 mg of test compound) was added carefully to the centre of a glass microscope slide and the volatile components left to evaporate in the dark for at least 3 hours to give a liquid film. The prepared films were then exposed for 1 hour to an Eimac 150 W xenon arc lamp filtered through Pyrex (15 Amp supply current, samples 19 cm from the lamp) previously allowed to warm up for 15 minutes prior to sample exposure. The irradiation was performed in a fume cupboard where the air flow was sufficient to keep sample T<30° C. One hour's exposure represented a calculated radiation dose (using meter) of approximately 100 MED.
In order to calculate the photostability of the test compounds, the exposed slides were placed in a beaker and rinsed with 2×5 mL EtOH, 1×5 mL MeOH. The combined washings were then added to a 100 mL volumetric flask and made up to 100 mL total volume with methanol. The UV absorbance was then measured in a 10 mm cuvette. The percent stability is measured as the ratio of absorbance at λmax for the irradiated sample compared to the unirradiated sample.
The thin films are a good surrogate for testing the stability of a candidate in, for example, a sunscreen formulation as they use cosmetic emollients as solvent and are formed at cosmetically relevant concentrations.

Row | Structure (SMILES) | Steepness [1] | Breakthrough (1% T at 0.1%) [1] | λmax [2] | λcrit [2] | E (1%, 1 cm) [2] | ε [2] | Photostability (% remains) [3] | Photostability [3]
1 | CCCCCCC(=O)C1=CN(c2ccc(N3C=C(C(=O)CCCCCC)C(C)(C)CC3)cc2)CCC1(C)C [Compound 129, reference compound] | 20 nm | 397 nm | 359 nm | 378 nm | 1169 and 1350 | 60809 and 70222 |  | 
2 | CCN(/C=C(\C(=O)C(F)(F)F)c1ccccc1)CC [Compound 144] | 23 nm | 361 nm | 319 nm | 350 nm | 860 | 23306 | 97% | 97%
3 | CCN(/C=C(\C(C)=O)c1ccccc1)CC [Compound 149] |  |  | 294 nm |  | 690 | 14973 | 6% | 
4 | CCOC(=O)/C(=C\N(C)C)c1ccccc1 [Compound 171] |  |  | 291 nm |  | 1169 | 22598 | 18% | 
5 | CN(/C=C(\C(=O)C(F)(F)F)c1ccccc1)c1ccccc1 [Compound 183] |  |  | 332 nm | 367 nm | 759 | 23153 | 90% | 90%
6 | CCN(/C=C(\C(=O)C(F)(F)C(F)(F)C(F)(F)F)c1ccccc1)c1ccccc1 [Compound 191] |  |  | 332 nm | 370 nm | 452 | 18948 | 95% | 
7 | COc1ccc2c(c1)CCN2/C=C(\C(=O)C(F)(F)F)c1ccccc1 [Compound 200] |  |  | 381 nm | 393 nm | 1004 | 34855 | 91% | 
8 | COC(=O)c1ccc2c(c1)CCN2/C=C(\C(=O)C(F)(F)F)c1ccccc1 [Compound 201] | 18 nm | 420 nm | 373 nm | 391 nm | 1230 | 46134 | 97% | 97%
9 | CCN(/C=C(\C(=O)c1c(F)c(F)c(F)c(F)c1F)c1ccccc1)CC [Compound 203] |  |  | 319 (broad) nm | 356 nm | 611 | 22532 | 31% | 
10 | O=C(/C(=C(/c1ccccc1)N1CCCC1)c1ccccc1)C(F)(F)F [Compound 204] |  |  | 363 nm | 387 nm | 358 | 12357 | 70% | 
11 | O=C(/C(=C\N1CCCN(/C=C(\C(=O)C(F)(F)F)c2ccccc2)c2ccccc21)c1ccccc1)C(F)(F)F [Compound 224] |  |  | 323 nm | 366 nm | 690 | 37546 | 97% | 
12 | CCCCC(CC)COC(=O)c1ccc(N(/C=C(\C(=O)C(F)(F)F)c2ccccc2)CC)cc1 (stereo not drawn) [Compound 227] |  |  | 347 nm | 374 nm | 646 | 30252 | 85% | 
13 | O=C(OCCCOC(=O)c1ccc2c(c1)CCN2/C=C(\C(=O)C(F)(F)F)c1ccccc1)c1ccc2c(c1)CCN2/C=C(\C(=O)C(F)(F)F)c1ccccc1 [Compound 228] |  |  | 374 nm | 391 nm | 1168 | 89042 | 95% | 
14 | COC(=O)c1ccc(N(/C=C(\C(=O)C(F)(F)F)c2ccccc2)c2ccccc2)cc1 [Compound 229] | 33 nm | 403 nm | 356 nm | 382 nm | 786 | 33427 |  | 
15 | CCCCC(CC)COC(=O)c1ccc(N(/C=C(\C(=O)C(F)(F)F)c2ccccc2)c2ccccc2)cc1 (stereo not drawn) [Compound 230] | 34 nm | 398 nm | 355 nm | 381 nm | 522 | 27313 |  | 
16 | CCOC(=O)C(=O)/C(=C\N1CCc2ccccc21)c1ccccc1 [Compound 231] | 34 nm | 418 nm | 363 nm | 388 nm | 989 | 31758 |  | 80%
17 | CCCCC(CC)COC(=O)c1cccc(N(/C=C(/C(=O)C(F)(F)F)c2ccccc2)CC)c1 (stereo not drawn) [Compound 232] | 35 nm | 373 nm | 334 nm | 368 nm | 430 | 20462 |  | 
18 | O=C(/C(=C\N1CCc2cc(C(F)(F)F)ccc21)c1ccccc1)C(F)(F)F [Compound 235] | 19 nm | 409 nm | 361 nm | 386 nm | 965 | 37158 |  | 
19 | O=C(/C(=C\N1CCc2ccc(C(F)(F)F)cc21)c1ccccc1)C(F)(F)F [Compound 236] | 19 nm | 409 nm | 364 nm | 387 nm | 815 | 31379 |  | 
20 | CCN(/C=C(/C(=O)C(F)(F)F)c1ccccc1)c1ccc(C(=O)OC)cc1 [Compound 239] | 28 nm | 391 nm | 348 nm | 375 nm | 728 | 25349 |  | 
21 | CCN(/C=C(\C(=O)C(F)(F)F)c1ccccc1)CCCCCCN(/C=C(\C(=O)C(F)(F)F)c1ccccc1)CC [Compound 242] | 52 nm | 361 nm | 318 nm | 353 nm | 544 | 30981 |  | 
22 | CN(C)S(=O)(=O)c1ccc(C(=O)/C(=C/N(c2ccccc2)c2ccccc2)c2ccccc2)cc1 [Compound 265] | 48 nm | 418 nm | 360 nm | 387 nm | 327 | 15775 |  | 
23 | CN(C)S(=O)(=O)c1ccc(C(=O)/C(=C/N2CCc3ccccc32)c2ccccc2)cc1 [Compound 266] | 46 nm | 429 nm | 368 nm | 390 nm | 552 | 23870 |  | 
24 | COC(=O)c1ccc2c(c1)CCN2/C=C(/C(=O)C(=O)Oc1ccccc1)c1ccccc1 [Compound 281] | 34 nm | 419 nm | 376 nm | 392 nm | 703 | 30040 |  | 
25 | COC(=O)c1ccc2c(c1)CCN2/C=C(/C(=O)c1ccc(C)cc1)c1ccccc1 [Compound 284] | 30 nm | 423 nm | 371 nm | 389 nm | 1150 | 45689 |  | 
26 | COC(=O)c1ccc2c(c1)CCN2/C=C(/C(=O)c1cccc(C)c1)c1ccccc1 [Compound 286] | 46 nm | 423 nm | 370 nm | 389 nm | 1205 | 47867 |  | 
27 | COC(=O)c1ccc2c(c1)CCN2/C=C(/C(=O)OC1(C)CCCCC1)c1ccccc1 [Compound 288] | 28 nm | 383 nm | 356 nm | 370 nm | 1360 | 57009 |  | 
28 | CC(C)(C)C(=O)/C(=C/N(c1ccccc1)c1ccccc1)c1ccccc1 [Compound 294] | 28 nm | 383 nm | 344 nm | 373 nm | 492 | 17462 |  | 
